This is an account of results in BindingDB's records for doi:10.1016/j.bmc.2010.11.049 (Bryn Mawr College, 2011).

The nature of the experiment: Inhibition of HIV1 YU2 gp120 binding to CD4 expressing Cf2Th-CD4/CCR5 cells assessed as inhibition of viral infection after 48 hrs.

Turning to `O=C(NCC1NCCc2ccccc21)C(=O)Nc1ccc(Cl)c(F)c1` (stereo not drawn) [N1-(4-chloro-3-fluorophenyl)-N2-((1,2,3,4-tetrahydroisoquinolin-1-yl)methyl)oxalamide], the IC50 came to 50.4 µM.
Next, `CC(C)Oc1cc(NC(=O)C(=O)NC2CC(C)(C)NC(C)(C)C2)ccc1Cl` [N1-(4-chloro-3-isopropoxyphenyl)-N2-(2,2,6,6-tetramethylpiperidin-4-yl)oxalamide]: greater than 100 µM.
With `O=C(Nc1ccc(Cl)cc1)Nc1ncnc2nc[nH]c12` [1-(4-chlorophenyl)-3-(9H-purin-6-yl)urea], the 50% inhibitory concentration (IC50) was greater than 100 µM.
As for `CC1(C)CC(NC(=O)C(=O)NCCc2ccc(Cl)cc2)CC(C)(C)N1` [4-(2-(4-chlorophenethylamino)-2-oxoacetamido)-2,2,6,6-tetramethylpiperidinium], the 50% inhibitory concentration (IC50) was greater than 100 µM.
For `O=C(COC(=O)c1n[nH]c2ccccc12)Nc1ccc(Cl)cn1` [2-(5-chloropyridin-2-ylamino)-2-oxoethyl 1H-indazole-3-carboxylate], the half-maximal inhibitory concentration (IC50) is greater than 100 µM.
On to `O=C(NCC(c1ccco1)N1CCCC1)C(=O)Nc1ccc(Cl)c(F)c1` (stereo not drawn) [N1-(4-chloro-3-fluorophenyl)-N2-(2-(furan-2-yl)-2-(pyrrolidin-1-yl)ethyl)oxalamide], for which the half-inhibitory concentration (IC50) is greater than 100 µM.
`CN(C(=O)C(=O)Nc1ccc(Cl)c(F)c1)C1CC(C)(C)NC(C)(C)C1` [N1-(4-chloro-3-fluorophenyl)-N2-methyl-N2-(2,2,6,6-tetramethylpiperidin-4-yl)oxalamide]: the IC50 is greater than 100 µM.
Regarding `Cc1cc(NC(=O)C(=O)c2c[nH]c3ccccc23)ccc1Br` [N-(4-bromo-3-methylphenyl)-2-(1H-indol-3-yl)-2-oxoacetamide], the IC50 was greater than 100 µM.
The figure for `CC1CCCN(CCC(=O)Nc2ccc(Br)cc2)C1` (stereo not drawn) [N-(4-bromophenyl)-3-(3-methylpiperidin-1-yl)propanamide] is greater than 100 µM.
`O=C(NCC1OCCc2ccccc21)C(=O)Nc1ccc(Br)cc1` (stereo not drawn) [N1-(4-bromophenyl)-N2-(isochroman-1-ylmethyl)oxalamide]: the half-inhibitory concentration (IC50) is greater than 100 µM.
`CN1CCCC(CNC(=O)C(=O)Nc2ccc(Cl)c(F)c2)C1` (stereo not drawn) [N1-(4-chloro-3-fluorophenyl)-N2-((1-methylpiperidin-3-yl)methyl)oxalamide]: the 50% inhibitory concentration (IC50) was greater than 100 µM.
For the compound `Cn1ccnc1C(O)(CCNC(=O)C(=O)Nc1ccc(Cl)c(F)c1)C(F)(F)F` (stereo not drawn) [N1-(4-chloro-3-fluorophenyl)-N2-(4,4,4-trifluoro-3-hydroxy-3-(1-methyl-1H-imidazol-2-yl)butyl)oxalamide], the IC50 is greater than 100 µM.
For the compound `NC(=O)C1CCN(CCC(=O)Nc2ccc(Br)cc2)CC1` [cis-1-(3-(4-bromophenylamino)-3-oxopropyl)-4-carbamoylpiperidinium], the IC50 was greater than 100 µM.
Consider `CNC(=O)c1ccc(CNC(=O)C(=O)Nc2ccc(Cl)c(F)c2)cc1` [N1-(4-chloro-3-fluorophenyl)-N2-(4-(methylcarbamoyl)benzyl)oxalamide], for which the IC50 was greater than 100 µM.
With `Cc1ccc(N(C)C)cc1NC(=O)COc1ccc(Cl)cc1` [2-(4-chlorophenoxy)-N-(5-(dimethylamino)-2-methylphenyl)acetamide], the IC50 was greater than 100 µM.
On to `CCCN1CCC(NC(=O)C(=O)Nc2ccc(Cl)c(F)c2)CC1` [N1-(4-chloro-3-fluorophenyl)-N2-(1-propylpiperidin-4-yl)oxalamide], for which the IC50 is greater than 100 µM.
For `O=C(NCc1[nH]nc2c1CCCCC2)C(=O)Nc1ccc(Cl)c(F)c1` [N1-(4-chloro-3-fluorophenyl)-N2-((1,4,5,6,7,8-hexahydrocyclohepta[c]pyrazol-3-yl)methyl)oxalamide], the IC50 is greater than 100 µM.
Next, `O=C(COc1ccc(Cl)cc1)Nc1cc(=O)[nH]c(=O)[nH]1` [2-(4-chlorophenoxy)-N-(2,6-dioxo-1,2,3,6-tetrahydropyrimidin-4-yl)acetamide]: greater than 100 µM.
On to `CCN1CCCC1CNC(=O)C(=O)Nc1ccc(Cl)c(F)c1` (stereo not drawn) [N1-(4-chloro-3-fluorophenyl)-N2-((1-ethylpyrrolidin-2-yl)methyl)oxalamide], for which the half-maximal inhibitory concentration (IC50) came to 85.2 µM.
For `O=C(Nc1ccc(Cl)cc1)C(=O)c1c[nH]c2ccccc12` [N-(4-chlorophenyl)-2-(1H-indol-3-yl)-2-oxoacetamide], the IC50 is greater than 100 µM.
With `O=C(NCCc1cnc[nH]1)Nc1ccc(Cl)c(Cl)c1` [1-(2-(1H-imidazol-5-yl)ethyl)-3-(3,4-dichlorophenyl)urea], the IC50 is greater than 100 µM.
`Cc1cc(Cl)ccc1NC(=O)C(=O)NC1CC(C)(C)NC(C)(C)C1` [N1-(4-chloro-2-methylphenyl)-N2-(2,2,6,6-tetramethylpiperidin-4-yl)oxalamide]: the IC50 was greater than 100 µM.
As to `O=C(Nc1ccc(Cl)c(F)c1)C(=O)Nc1cccc2[nH]ncc12` [N1-(4-chloro-3-fluorophenyl)-N2-(1H-indazol-4-yl)oxalamide], the concentration for half-maximal inhibition (IC50) is greater than 100 µM.
With `CC1(C)CC(NC(=O)C(=O)Nc2ccc(Cl)cc2F)CC(C)(C)N1` [N1-(4-chloro-2-fluorophenyl)-N2-(2,2,6,6-tetramethylpiperidin-4-yl)oxalamide], the IC50 is greater than 100 µM.
`C[C@H]1CCCN(CCC(=O)Nc2ccc(Cl)cc2)C1` [(3S)-1-(3-(4-chlorophenylamino)-3-oxopropyl)-3-methylpiperidinium]: the IC50 is greater than 100 µM.
On to `CCCN1CCCC(NC(=O)C(=O)Nc2ccc(Cl)c(F)c2)C1` (stereo not drawn) [N1-(4-chloro-3-fluorophenyl)-N2-(1-propylpiperidin-3-yl)oxalamide], for which the half-maximal inhibitory concentration (IC50) worked out at 58 µM.
Consider `O=C(NC[C@@H]1CCCN2CCCC[C@H]12)C(=O)Nc1ccc(Cl)c(F)c1` [N1-(4-chloro-3-fluorophenyl)-N2-(((1S,9aR)-octahydro-1H-quinolizin-1-yl)methyl)oxalamide], for which the 50% inhibitory concentration (IC50) is greater than 100 µM.
Regarding `CC1(C)CC(NC(=O)C(=O)Nc2cccc(OCc3ccccc3)c2)CC(C)(C)N1` [N1-(3-(benzyloxy)phenyl)-N2-(2,2,6,6-tetramethylpiperidin-4-yl)oxalamide], the half-inhibitory concentration (IC50) was greater than 100 µM.
With `O=C(Nc1ccc(Br)cc1)c1cc(CN2CCCC2)on1` [N-(4-bromophenyl)-5-(pyrrolidin-1-ylmethyl)isoxazole-3-carboxamide], the IC50 is greater than 100 µM.
Take `CN1CCCN(C(=O)COc2ccc(Cl)cc2)CC1` [4-(2-(4-chlorophenoxy)acetyl)-1-methyl-1,4-diazepan-1-ium]: the half-inhibitory concentration (IC50) was greater than 100 µM.
Next, `CC1(C)CC(NC(=O)C(=O)Nc2ccc(Cl)cc2OCc2ccccc2)CC(C)(C)N1` [N1-(2-(benzyloxy)-4-chlorophenyl)-N2-(2,2,6,6-tetramethylpiperidin-4-yl)oxalamide]: greater than 100 µM; `CC(C)(CNC(=O)C(=O)Nc1ccc(Cl)c(F)c1)N1CCOCC1` [N1-(4-chloro-3-fluorophenyl)-N2-(2-methyl-2-morpholinopropyl)oxalamide]: greater than 100 µM; `O=C(NCc1ccccc1CN1CCOCC1)C(=O)Nc1ccc(Cl)c(F)c1` [N1-(4-chloro-3-fluorophenyl)-N2-(2-(morpholinomethyl)benzyl)oxalamide]: 20.5 µM.
In the case of `CC1(C)CC(NC(=O)C(=O)Nc2ccc(-n3cc(CCc4ccccc4)nn3)cc2)CC(C)(C)N1` [N1-(4-(4-phenethyl-1H-1,2,3-triazol-1-yl)phenyl)-N2-(2,2,6,6-tetramethylpiperidin-4-yl)oxalamide], the IC50 is greater than 100 µM.
As to `CN1CCCC(ONC(=O)C(=O)Nc2ccc(Cl)c(F)c2)C1` (stereo not drawn) [N1-(4-chloro-3-fluorophenyl)-N2-(1-methylpiperidin-3-yloxy)oxalamide], the IC50 was greater than 100 µM.
Next, `O=C(NCC(c1ccc(Cl)cc1)N1CCCC1)C(=O)Nc1ccc(Cl)c(F)c1` (stereo not drawn) [N1-(4-chloro-3-fluorophenyl)-N2-(2-(4-chlorophenyl)-2-(pyrrolidin-1-yl)ethyl)oxalamide]: 61.4 µM; `CC1(C)CC(NC(=O)CC(=O)Nc2ccc(Br)cc2)CC(C)(C)N1` [N1-(4-bromophenyl)-N3-(2,2,6,6-tetramethylpiperidin-4-yl)malonamide]: greater than 100 µM; `COc1cc(NC(=O)C(=O)NC2CC(C)(C)NC(C)(C)C2)ccc1Cl` [N1-(4-chloro-3-methoxyphenyl)-N2-(2,2,6,6-tetramethylpiperidin-4-yl)oxalamide]: greater than 100 µM.
On to `O=C(Nc1ccc(Br)cc1)C(=O)Nc1cccc2ccccc12` [N1-(4-bromophenyl)-N2-(naphthalen-1-yl)oxalamide], for which the IC50 was greater than 100 µM.
On to `CN1CCC(NC(=O)C(=O)Nc2ccc(Cl)c(F)c2)CC1` [N1-(4-chloro-3-fluorophenyl)-N2-(1-methylpiperidin-4-yl)oxalamide], for which the concentration for half-maximal inhibition (IC50) is greater than 100 µM.
For the compound `CCc1n[nH]c(NC(=O)C(=O)Nc2ccc(Cl)c(F)c2)c1CC` [N1-(4-chloro-3-fluorophenyl)-N2-(3,4-diethyl-1H-pyrazol-5-yl)oxalamide], the IC50 was greater than 100 µM.
With `CCOC(=O)[C@H]1CCCN(CCC(=O)Nc2ccc(Br)cc2)C1` [(3S)-1-(3-(4-bromophenylamino)-3-oxopropyl)-3-(ethoxycarbonyl)piperidinium], the IC50 was greater than 100 µM.
The figure for `O=C(NCC1CCN(CCN2CCOCC2)C1)C(=O)Nc1ccc(Cl)c(F)c1` (stereo not drawn) [N1-(4-chloro-3-fluorophenyl)-N2-((1-(2-morpholinoethyl)pyrrolidin-3-yl)methyl)oxalamide] is greater than 100 µM; for `COc1cccc(NC(=O)C(=O)Nc2ccc(Cl)cc2)c1` [N1-(4-chlorophenyl)-N2-(3-methoxyphenyl)oxalamide] it is greater than 100 µM; for `CN(C)C(CNC(=O)C(=O)Nc1ccc(Cl)c(F)c1)c1ccco1` (stereo not drawn) [N1-(4-chloro-3-fluorophenyl)-N2-(2-(dimethylamino)-2-(furan-2-yl)ethyl)oxalamide] it is greater than 100 µM.
The figure for `Nc1ccc(C(=O)CC(=O)Nc2ccc(Cl)cc2)cc1` [3-(4-aminophenyl)-N-(4-chlorophenyl)-3-oxopropanamide] is greater than 100 µM.
Regarding `COc1cccc(CNC(=O)C(=O)Nc2ccc(Cl)cc2)c1` [N1-(4-chlorophenyl)-N2-(3-methoxybenzyl)oxalamide], the concentration for half-maximal inhibition (IC50) is greater than 100 µM.
For `Nc1ncc(CNC(=O)C(=O)Nc2ccc(Cl)c(F)c2)cn1` [N1-((2-aminopyrimidin-5-yl)methyl)-N2-(4-chloro-3-fluorophenyl)oxalamide], the IC50 is greater than 100 µM.

The IC50 is the point on the concentration scale where inhibition reaches its midpoint.
